Assays:
Type in all cases: cell-based
[1] = target: T1, human TLR7 (Homo sapiens, UniProt Q9NYK1); experiment: TLR7 inhibition reporter assay (HEK-Blue cells, SEAP reporter, gardiquimod stimulation); conditions: HEK-Blue cells overexpressing human TLR7, SEAP reporter, gardiquimod 7.5 μM
T1 construct: host or cells: HEK-Blue cells (HEK293-derived reporter line)
T1 sequence (Q9NYK1 27-1049): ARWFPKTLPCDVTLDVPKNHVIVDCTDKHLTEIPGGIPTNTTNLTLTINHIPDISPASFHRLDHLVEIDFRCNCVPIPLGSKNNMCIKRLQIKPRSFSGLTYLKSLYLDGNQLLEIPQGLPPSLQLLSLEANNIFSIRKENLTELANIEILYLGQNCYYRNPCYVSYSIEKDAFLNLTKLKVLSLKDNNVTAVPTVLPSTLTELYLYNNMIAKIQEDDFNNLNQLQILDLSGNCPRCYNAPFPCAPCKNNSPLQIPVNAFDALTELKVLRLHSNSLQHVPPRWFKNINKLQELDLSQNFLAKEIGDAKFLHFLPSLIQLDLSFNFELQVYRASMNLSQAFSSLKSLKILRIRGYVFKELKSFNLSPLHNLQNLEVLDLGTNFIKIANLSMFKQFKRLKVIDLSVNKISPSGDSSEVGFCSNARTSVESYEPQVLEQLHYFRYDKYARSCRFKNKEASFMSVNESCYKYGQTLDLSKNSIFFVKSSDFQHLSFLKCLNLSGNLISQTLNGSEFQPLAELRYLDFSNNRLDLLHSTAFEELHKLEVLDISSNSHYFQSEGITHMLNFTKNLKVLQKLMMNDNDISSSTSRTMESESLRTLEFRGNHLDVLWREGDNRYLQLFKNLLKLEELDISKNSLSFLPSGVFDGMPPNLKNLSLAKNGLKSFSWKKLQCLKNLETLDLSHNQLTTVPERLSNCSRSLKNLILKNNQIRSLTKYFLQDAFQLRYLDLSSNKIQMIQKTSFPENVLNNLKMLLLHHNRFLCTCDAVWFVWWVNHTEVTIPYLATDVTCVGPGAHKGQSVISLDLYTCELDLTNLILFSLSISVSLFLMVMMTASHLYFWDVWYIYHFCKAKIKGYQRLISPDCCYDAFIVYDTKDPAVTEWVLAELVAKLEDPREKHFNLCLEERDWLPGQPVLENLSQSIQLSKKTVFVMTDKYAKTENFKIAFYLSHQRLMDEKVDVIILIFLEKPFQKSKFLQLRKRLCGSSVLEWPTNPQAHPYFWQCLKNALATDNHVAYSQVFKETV
In short: (§1)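 Cells seeded per well (15000 TLR7, 20,000 TLR8, 25,000 TLR9); compound added over 0.05 nM–50 μM for 30 min at room temperature; agonist added (TLR7 gardiquimod 7.5 μM, TLR8 R848 15.9 μM, TLR9 ODN2006 5 nM); 22 h at 37 °C; SEAP measured; percent inhibition calculated.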

[2] = target: T2, human TLR9 (Homo sapiens, UniProt Q9NR96); experiment: TLR9 inhibition reporter assay (HEK-Blue cells, SEAP reporter, ODN2006 stimulation); conditions: HEK-Blue cells overexpressing human TLR9, SEAP reporter, ODN2006 5 nM
T2 construct: host or cells: HEK-Blue cells (HEK293-derived reporter line)
T2 sequence (Q9NR96 26-1032): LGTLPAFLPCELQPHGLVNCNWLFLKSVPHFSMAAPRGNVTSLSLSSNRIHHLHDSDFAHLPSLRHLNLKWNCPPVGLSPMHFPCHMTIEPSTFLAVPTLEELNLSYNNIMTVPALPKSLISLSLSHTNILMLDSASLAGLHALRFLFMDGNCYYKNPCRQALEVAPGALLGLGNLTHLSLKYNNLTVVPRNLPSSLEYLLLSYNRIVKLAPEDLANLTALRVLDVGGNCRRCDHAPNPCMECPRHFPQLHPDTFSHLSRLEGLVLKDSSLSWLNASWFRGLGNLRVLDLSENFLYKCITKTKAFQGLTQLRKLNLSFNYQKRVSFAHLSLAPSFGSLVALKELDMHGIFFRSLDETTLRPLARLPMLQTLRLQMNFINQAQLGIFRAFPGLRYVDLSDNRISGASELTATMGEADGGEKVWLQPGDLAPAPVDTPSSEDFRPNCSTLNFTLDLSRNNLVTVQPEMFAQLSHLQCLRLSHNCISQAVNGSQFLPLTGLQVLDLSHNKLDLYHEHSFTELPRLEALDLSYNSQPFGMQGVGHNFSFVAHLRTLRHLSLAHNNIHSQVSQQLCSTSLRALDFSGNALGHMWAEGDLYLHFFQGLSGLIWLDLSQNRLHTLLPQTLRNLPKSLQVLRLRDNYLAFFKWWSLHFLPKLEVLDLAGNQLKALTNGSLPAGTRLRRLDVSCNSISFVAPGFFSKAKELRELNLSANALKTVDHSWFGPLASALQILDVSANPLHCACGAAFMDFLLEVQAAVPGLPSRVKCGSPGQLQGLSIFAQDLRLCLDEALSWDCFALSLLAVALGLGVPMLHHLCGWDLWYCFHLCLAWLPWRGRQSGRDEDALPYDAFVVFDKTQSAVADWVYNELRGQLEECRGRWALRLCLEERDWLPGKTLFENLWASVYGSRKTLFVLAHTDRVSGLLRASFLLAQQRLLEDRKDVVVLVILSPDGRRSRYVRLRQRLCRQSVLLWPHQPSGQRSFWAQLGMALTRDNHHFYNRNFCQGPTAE
In short: as §1

[3] = target: T3, human TLR8 (Homo sapiens, UniProt Q9NR97); experiment: TLR8 inhibition reporter assay (HEK-Blue cells, SEAP reporter, R848 stimulation); conditions: HEK-Blue cells overexpressing human TLR8, SEAP reporter, R848 15.9 μM
T3 construct: host or cells: HEK-Blue cells (HEK293-derived reporter line)
T3 sequence (Q9NR97 27-1041): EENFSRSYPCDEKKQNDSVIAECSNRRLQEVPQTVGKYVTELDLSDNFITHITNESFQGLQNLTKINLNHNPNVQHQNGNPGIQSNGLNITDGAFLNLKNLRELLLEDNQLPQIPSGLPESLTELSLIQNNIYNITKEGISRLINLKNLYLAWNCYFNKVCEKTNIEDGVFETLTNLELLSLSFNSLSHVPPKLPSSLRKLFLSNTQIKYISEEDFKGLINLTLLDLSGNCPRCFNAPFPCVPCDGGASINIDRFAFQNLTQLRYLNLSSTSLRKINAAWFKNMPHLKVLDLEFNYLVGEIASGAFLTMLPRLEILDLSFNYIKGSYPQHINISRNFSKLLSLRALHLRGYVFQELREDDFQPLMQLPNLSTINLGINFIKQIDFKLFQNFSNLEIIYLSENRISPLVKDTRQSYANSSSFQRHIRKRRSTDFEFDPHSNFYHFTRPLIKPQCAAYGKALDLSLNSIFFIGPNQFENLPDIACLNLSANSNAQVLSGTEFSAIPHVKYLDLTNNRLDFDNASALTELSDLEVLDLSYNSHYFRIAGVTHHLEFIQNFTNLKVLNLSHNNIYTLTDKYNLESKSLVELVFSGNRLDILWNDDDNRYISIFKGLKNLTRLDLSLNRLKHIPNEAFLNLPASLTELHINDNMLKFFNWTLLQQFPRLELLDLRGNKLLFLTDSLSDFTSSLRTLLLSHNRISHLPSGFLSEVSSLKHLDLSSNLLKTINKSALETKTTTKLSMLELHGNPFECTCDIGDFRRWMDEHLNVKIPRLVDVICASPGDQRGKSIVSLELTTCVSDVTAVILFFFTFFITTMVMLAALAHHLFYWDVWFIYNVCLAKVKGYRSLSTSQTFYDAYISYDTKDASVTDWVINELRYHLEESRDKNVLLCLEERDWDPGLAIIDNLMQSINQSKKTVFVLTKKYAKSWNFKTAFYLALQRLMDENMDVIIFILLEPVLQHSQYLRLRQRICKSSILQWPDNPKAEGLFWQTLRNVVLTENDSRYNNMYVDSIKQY
In short: as §1

| IC50 [1] [µM] | IC50 [2] [µM] | IC50 [3] [µM] | SMILES |
| --- | --- | --- | --- |
| < 0.1 | 1 to 50 | < 0.1 | CC(C)c1c(-c2cn(C)c3ncccc23)[nH]c2ccc(C3CCN(C4CCOCC4)CC3)cc12 [Example 694, 3-(3-isopropyl-5-(1-(tetrahydro-2H-pyran-4-yl)piperidin-4-yl)-1H-indol-2-yl)-1-methyl-1H-pyrrolo[2,3-b]pyridine] |
| 1 to 50 | 0.1 to 1 | 1 to 50 | CNCCN1CCC(c2ccc3[nH]c(-c4ccc5[nH]ccc5c4)c(C)c3c2)CC1 [Example 667, N-methyl-2-(4-(3-methyl-1H,1′H-[2,5′-biindol]-5-yl)piperidin-1-yl)ethan-1-amine] |
| < 0.1 | 1 to 50 | < 0.1 | CNC(=O)CN1CCC(c2ccc3[nH]c(-c4ccc5ncnn5n4)c(C(C)C)c3c2)CC1 [Example 277, 2-(4-(2-([1,2,4]triazolo[1,5-b]pyridazin-6-yl)-3-isopropyl-1H-indol-5-yl)piperidin-1-yl)-N-methylacetamide] |
| < 0.1 | 0.1 to 1 | 1 to 50 | Cc1cn2cc(-c3[nH]c4ccc(C5CCNCC5)cc4c3C(C)C)cnc2n1 [Example 159, 6-(3-isopropyl-5-(piperidin-4-yl)-1H-indol-2-yl)-2-methylimidazo[1,2-a]pyrimidine] |
| < 0.1 | > 50 | 0.1 to 1 | Cc1cc(-c2[nH]c3ccc(C4CCN(C(=O)CN5CC(C)(C)OC(C)(C)C5)CC4)cc3c2C(C)C)cn2nnnc12 [Example 473, 1-(4-(3-isopropyl-2-(8-methyltetrazolo[1,5-a]pyridin-6-yl)-1H-indol-5-yl)piperidin-1-yl)-2-(2,2,6,6-tetramethylmorpholino)ethan-1-one] |
| 0.1 to 1 | 1 to 50 | < 0.1 | CCc1c(-c2ccnc3[nH]ncc23)[nH]c2ccc(C3CCN(Cc4coc(C)n4)CC3)cc12 [Example 917, 4-((4-(3-ethyl-2-(1H-pyrazolo[3,4-b]pyridin-4-yl)-1H-indol-5-yl)piperidin-1-yl)methyl)-2-methyloxazole] |
| < 0.1 | 0.1 to 1 | < 0.1 | Cc1c(-c2ccnc3cc[nH]c23)[nH]c2ccc(C3CCNCC3)cc12 [Example 23, 7-(3-methyl-5-(piperidin-4-yl)-1H-indol-2-yl)-1H-pyrrolo[3,2-b]pyridine] |
| < 0.1 | 1 to 50 | < 0.1 | CC(C)c1c(-c2cn(C)c3ncncc23)[nH]c2ccc(C3CCN(C(=O)CN(C)C)CC3)cc12 [Example 456, 2-(dimethylamino)-1-(4-(3-isopropyl-2-(7-methyl-7H-pyrrolo[2,3-d]pyrimidin-5-yl)-1H-indol-5-yl)piperidin-1-yl)ethan-1-one] |
| < 0.1 | 1 to 50 | < 0.1 | COc1cc(-c2[nH]c3ccc(C4CCN(CC(=O)N(C)C)CC4)cc3c2C(C)C)cc2ncnn12 [Example 333, 2-(4-(3-isopropyl-2-(5-methoxy-[1,2,4]triazolo[1,5-a]pyridin-7-yl)-1H-indol-5-yl)piperidin-1-yl)-N,N-dimethylacetamide] |
| 1 to 50 | > 50 | 1 to 50 | CCc1c(-c2cccc3[nH]ncc23)[nH]c2ccc(C3CCN(CC(=O)NC)CC3)cc12 [Example 388, 2-(4-(3-ethyl-2-(1H-indazol-4-yl)-1H-indol-5-yl)piperidin-1-yl)-N-methylacetamide] |
| 1 to 50 | 1 to 50 | 0.1 to 1 | Cc1cc(-c2[nH]c3ccc(C4CCN(CCS(C)(=O)=O)CC4)cc3c2C(C)C)cn2nncc12 [Example 785, 6-(3-isopropyl-5-(1-(2-(methylsulfonyl)ethyl)piperidin-4-yl)-1H-indol-2-yl)-4-methyl-[1,2,3]triazolo[1,5-a]pyridine] |
| < 0.1 | 0.1 to 1 | 0.1 to 1 | CCCN1CCC(c2ccc3[nH]c(-c4cc(C)c5c(c4)ncn5C)c(C(C)C)c3c2)CC1 [Example 956, 5-(3-isopropyl-5-(1-propylpiperidin-4-yl)-1H-indol-2-yl)-1,7-dimethyl-1H-benzo[d]imidazole] |
| < 0.1 | 1 to 50 | < 0.1 | CC(C)c1c(-c2cn(C)c3ncccc23)[nH]c2ccc(C3CCN(CC(=O)N4CCOCC4)CC3)cc12 [Example 294, 2-(4-(3-isopropyl-2-(1-methyl-1H-pyrrolo[2,3-b]pyridin-3-yl)-1H-indol-5-yl)piperidin-1-yl)-1-morpholinoethan-1-one] |
| < 0.1 | 1 to 50 | < 0.1 | Cc1cc(-c2[nH]c3ccc(C4CCNCC4)cc3c2C(C)C)cc2ocnc12 [Example 234, 6-(3-isopropyl-5-(piperidin-4-yl)-1H-indol-2-yl)-4-methylbenzo[d]oxazole] |
| < 0.1 | > 50 | < 0.1 | CC(C)c1c(-c2ccc(C#N)c3ncccc23)[nH]c2ccc(C3CCN(C4COC4)CC3)cc12 [Example 714, 5-(3-isopropyl-5-(1-(oxetan-3-yl)piperidin-4-yl)-1H-indol-2-yl)quinoline-8-carbonitrile] |

Source: US11739098B2 (BRISTOL-MYERS SQUIBB COMPANY, priority 2017, dated 2023)
